Assay results taken from the Kinase Knowledgebase extract (Sharma et al. 2016).
pIC50: −log10 of the molar value.

What was measured:
[1] = molecular target: EGFR (human) (UniProt P00533); conditions: kb
[2] = molecular target: EGFR (human) (UniProt P00533); conditions: a431, dose or concentration not given here

Sequence of EGFR (human) (P00533 whole entry, looked up): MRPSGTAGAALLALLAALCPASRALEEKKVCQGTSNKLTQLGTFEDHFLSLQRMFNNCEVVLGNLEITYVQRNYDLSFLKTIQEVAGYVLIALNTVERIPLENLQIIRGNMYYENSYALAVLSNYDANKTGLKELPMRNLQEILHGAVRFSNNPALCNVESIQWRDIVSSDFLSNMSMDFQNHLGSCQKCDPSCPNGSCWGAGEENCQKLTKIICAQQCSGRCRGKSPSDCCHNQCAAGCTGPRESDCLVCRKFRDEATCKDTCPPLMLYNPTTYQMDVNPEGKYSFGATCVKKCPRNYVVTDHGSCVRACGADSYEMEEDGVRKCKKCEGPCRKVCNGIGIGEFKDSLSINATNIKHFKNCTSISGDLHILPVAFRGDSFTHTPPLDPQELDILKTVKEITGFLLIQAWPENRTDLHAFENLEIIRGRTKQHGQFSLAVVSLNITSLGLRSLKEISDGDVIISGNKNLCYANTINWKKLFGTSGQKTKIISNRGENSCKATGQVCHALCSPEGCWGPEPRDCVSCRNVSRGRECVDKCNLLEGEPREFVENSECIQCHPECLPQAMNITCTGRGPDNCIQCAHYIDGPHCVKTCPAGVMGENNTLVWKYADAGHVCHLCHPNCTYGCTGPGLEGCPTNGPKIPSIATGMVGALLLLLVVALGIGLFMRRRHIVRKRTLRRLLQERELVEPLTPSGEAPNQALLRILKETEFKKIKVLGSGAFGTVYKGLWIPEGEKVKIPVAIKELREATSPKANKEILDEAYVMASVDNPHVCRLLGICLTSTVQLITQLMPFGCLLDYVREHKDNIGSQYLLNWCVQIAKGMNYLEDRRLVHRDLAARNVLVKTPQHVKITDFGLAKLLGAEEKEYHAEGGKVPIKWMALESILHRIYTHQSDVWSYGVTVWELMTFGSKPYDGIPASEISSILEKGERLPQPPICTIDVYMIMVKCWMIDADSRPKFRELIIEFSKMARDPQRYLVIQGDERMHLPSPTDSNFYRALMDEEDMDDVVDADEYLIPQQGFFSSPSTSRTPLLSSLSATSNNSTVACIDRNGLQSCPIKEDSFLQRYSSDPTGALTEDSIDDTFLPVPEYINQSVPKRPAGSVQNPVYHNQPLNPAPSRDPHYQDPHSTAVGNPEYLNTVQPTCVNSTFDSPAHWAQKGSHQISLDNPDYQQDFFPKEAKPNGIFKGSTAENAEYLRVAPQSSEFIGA

Compound	pIC50 [1]	inhibition [2]
COc1cc2ncnc(NC3CC3c3ccccc3)c2cc1O (centres undefined)	< 4.60	–
COc1cc2ncnc(NC3CC3c3ccccc3)c2cc1OC(C)=O (centres undefined)	4.94	–
COc1cc2ncnc(Nc3cnc4ccccc4n3)c2cc1OC	< 4.60	–
COc1cc2ncnc(N3CCc4ccccc43)c2cc1OC	5.39	–
COc1cc2ncnc(NC3CCc4ccccc43)c2cc1OC (centres undefined)	5.76	–
COc1cc2ncnc(Nc3nccc4ccccc34)c2cc1OC	5.74	–
COc1cc2ncnc(Nc3nnc4ccccc4n3)c2cc1OC	< 4.60	–
COc1cc2ncnc(NCc3cccc(C)c3)c2cc1OC	5.80	–

The next molecules have a higher pIC50 [1] than those just listed; values first:

pIC50 [1]	Compound	inhibition [2]
6.11	COc1cc2ncnc(NNc3ccc(F)c(Cl)c3)c2cc1OC	–
6.24	COc1cc2ncnc(NC3CC3c3ccccc3)c2cc1OCCN1CCOCC1 (centres undefined)	–
6.44	COc1cc2ncnc(Nc3cncc4ccccc34)c2cc1OC	–
6.51	COc1cc2ncnc(NC3CC3c3ccccc3)c2cc1OCCCN(C)C (centres undefined)	36%
6.85	COc1cc2ncnc(NC3CC3c3ccccc3)c2cc1OC (centres undefined)	–
